{"source": "patent US20050209157A1", "about": "“Short bioactive peptides and methods for their use” (priority 2001, published 2005)", "key": {"fungal": {"tested_on": "fungal", "experiment": "Presently preferred antifungal peptides, selected from the MIC/MBC data", "assay_type": "cell-based", "settings": "X = preferred", "from_the_text": "The peptide's “length” is the number of amino acid residues in the sequence."}, "[1]": {"tested_on": "Stapholococcus aureus ATCC 25923", "experiment": "Antimicrobial assay I, modified protocol (tryptic soy broth), MBC", "settings": "minimum bactericidal concentration, Table 4"}, "[2]": {"tested_on": "Candida albicans ATCC 10231", "experiment": "Antimicrobial assay I, modified protocol (tryptic soy broth), MFC", "settings": "minimum fungicidal concentration, Table 4"}, "[3]": {"tested_on": "Escherichia coli ATCC 25922", "experiment": "Antimicrobial assay I, modified protocol (tryptic soy broth), MBC", "settings": "minimum bactericidal concentration, Table 4"}, "[4]": {"tested_on": "Pseudomonas aeruginosa ATCC 27853", "experiment": "Antimicrobial assay I, modified protocol (tryptic soy broth), MBC", "settings": "minimum bactericidal concentration, Table 4"}}, "note": "No end group written: not given here.", "data": [{"substance": "FAKLLAKLAK-NH2 [compound 123]", "values": [{"measurement": "Anti-fungal (preferred peptide)", "setting": "fungal", "value": "X (Preferred antifungal peptides can be selected as having MIC or MBC values of less than or equal to about 25 μg/ml)"}, {"measurement": "MBC S. aur A.25923", "setting": "[1]", "value": "INACT"}, {"measurement": "MFC Candida A.10231", "setting": "[2]", "value": 25, "unit": "µg/mL"}, {"measurement": "MBC E. coli A.25922", "setting": "[3]", "value": 40, "unit": "µg/mL"}, {"measurement": "MBC P. aerug A.27853", "setting": "[4]", "value": "INACT"}]}, {"substance": "FALALKALKKAL-NH2 [compound 144]", "values": [{"measurement": "Anti-fungal (preferred peptide)", "setting": "fungal", "value": "X (Preferred antifungal peptides can be selected as having MIC or MBC values of less than or equal to about 25 μg/ml)"}, {"measurement": "MBC S. aur A.25923", "setting": "[1]", "value": 25, "unit": "µg/mL"}, {"measurement": "MFC Candida A.10231", "setting": "[2]", "value": 25, "unit": "µg/mL"}, {"measurement": "MBC E. coli A.25922", "setting": "[3]", "value": 10, "unit": "µg/mL"}, {"measurement": "MBC P. aerug A.27853", "setting": "[4]", "value": 25, "unit": "µg/mL"}]}, {"substance": "FALKALKKLKKALKKAL-NH2 [compound 153]", "values": [{"measurement": "Anti-fungal (preferred peptide)", "setting": "fungal", "value": "X (Preferred antifungal peptides can be selected as having MIC or MBC values of less than or equal to about 25 μg/ml)"}, {"measurement": "MBC S. aur A.25923", "setting": "[1]", "value": 5, "unit": "µg/mL"}, {"measurement": "MFC Candida A.10231", "setting": "[2]", "value": 25, "unit": "µg/mL"}, {"measurement": "MBC E. coli A.25922", "setting": "[3]", "value": 10, "unit": "µg/mL"}, {"measurement": "MBC P. aerug A.27853", "setting": "[4]", "value": 25, "unit": "µg/mL"}]}, {"substance": "FALALKAKKL-NH2 [compound 182]", "values": [{"measurement": "Anti-fungal (preferred peptide)", "setting": "fungal", "value": "X (Preferred antifungal peptides can be selected as having MIC or MBC values of less than or equal to about 25 μg/ml)"}]}, {"substance": "FAKLLALALKKAL-NH2 [compound 97]", "values": [{"measurement": "Anti-fungal (preferred peptide)", "setting": "fungal", "value": "X (Preferred antifungal peptides can be selected as having MIC or MBC values of less than or equal to about 25 μg/ml)"}, {"measurement": "MBC S. aur A.25923", "setting": "[1]", "value": 25, "unit": "µg/mL"}, {"measurement": "MFC Candida A.10231", "setting": "[2]", "value": 25, "unit": "µg/mL"}, {"measurement": "MBC E. coli A.25922", "setting": "[3]", "value": 25, "unit": "µg/mL"}, {"measurement": "MBC P. aerug A.27853", "setting": "[4]", "value": ">50", "unit": "µg/mL"}]}]}
